Experimental data reported in patent US11040958B2, “Triazole antimicrobial derivative, pharmaceutical composition and use thereof” (priority 2017, dated 2021).
Where two headings read alike, the source gives them in different places.

Experiments:
[1] = Solubility test in deionized water (HPLC, external calibration); assay type: physicochemical; conditions: for solubility at 30 min: 25 °C, thermodynamic from solid
Method: Experimental condition: 25±2° C.
Dissolving medium: deionized water
Experimental method: 1 mg voriconazole and appropriate amount of each compound were weighed, placed in 1 ml deionized water separately, shaken vigorously for 30 s every 5 mins for 30 mins.

[2] = In vitro metabolic stability in rat plasma; assay type: in vitro ADME; conditions: 37°C, compound 10 μM
Method: The two reaction systems were set up three samples in parallel, while each sample was taken in an amount of 100 μL at 1 min, 2 mins, 5 mins, 15 mins, and 30 mins after the reaction, added to the centrifuge tube containing 400 μL of 0° C. pre-cooled internal standard working fluid and terminated the reaction. The sample was mixed by vortex for 1 min, centrifuged at 10,000×g for 10 mins in a 4° C. pre-cooled high-speed centrifuge. The supernatant was taken for HPLC detection. […] Concentration of mother liquor of compounds: 1 mM […]

[3] = In vitro metabolic stability in rat intestinal S9; assay type: in vitro ADME; conditions: 37°C, S9 1 mg/mL, compound 10 μM, NADPH regeneration system
Method: (§1) The two reaction systems were set up three samples in parallel, while each sample was taken in an amount of 100 μL at 1 min, 2 mins, 5 mins, 15 mins, and 30 mins after the reaction, added to the centrifuge tube containing 400 μL of 0° C. pre-cooled internal standard working fluid and terminated the reaction. The sample was mixed by vortex for 1 min, centrifuged at 10,000×g for 10 mins in a 4° C. pre-cooled high-speed centrifuge. The supernatant was taken for HPLC detection. […] Concentration of mother liquor of compounds: 1 mM […] [table]

[4] = In vitro metabolic stability in human intestinal S9; assay type: in vitro ADME; conditions: 37°C, S9 1 mg/mL, compound 10 μM, NADPH regeneration system
Method: as §1

[5] = Solid stability test (25°C, RH 60%, 30 days); assay type: physicochemical; conditions: 25°C±2°C, relative humidity 60%±2%
Method: Experimental conditions: 25° C.±2° C., relative humidity 60%±2%
Experimental instrument: Agilent 1260 HPLC; chamber for stability test
Experimental method: each compound of the present disclosure was packaged (the inner packaging material was a penicillin bottle; the outer packaging material was a double-layer aluminum foil bag, and a desiccant was added inside and outside the package), placed in the chamber for stability test, at a temperature of 25° C.±2° C. and a relative humidity of 60%±2%. The degradation situation of the compounds for 30 days was examined. The contents of total impurities before and after 30 days of each compound were compared and the results were as follows: […]

[6] = test system: Candida albicans ATCC10231; assay: Systemic fungal infection in mice, intravenous administration, survival; assay type: in vivo; conditions: ICR mice, tail vein, 5 mg/kg (calculated as voriconazole) once daily for 5 days
Method: (§2) ICR mice, weighing 18-22 g, male, provided by the Hubei Experimental Animal Center.
(§3) The standard strain Candida albicans was purchased from the American Type Culture Collection, and the strain number was ATCC10231.
Before the experiment, a small amount of Candida albicans was picked from the SDA medium preserved at 4° C. by inoculation circle, and inoculated into 1 ml YPD (Yeast Extract Peptone Dextrose Medium, the same below) culture medium, under shake cultivation at 30° C., 200 rpm, activated for 16 hours to make the fungus in the late stage of the exponential growth phase. Blood cell counting plate was used to count. The concentration of the broth was adjusted to 1*10^3-5*10^3 CFU/ml with RPMI1640 (Roswell Park Memorial Institute 1640, the same below) culture medium. The Candida albicans monoclone on the SDA plate was picked and inoculated into 1 ml YPD medium, cultured at 35° C., 200 rpm for 16 hours to the late exponential growth phase, 1% of which was then inoculated in fresh medium for 6 hours, centrifuged at 1000×g for 5 mins, washed three times with saline until the supernatant was colorless, while hemocytometer was used to count. The cell concentration was adjusted to 5*10^6/ml. The tail vein injection of 0.1 ml/10 g was carried out to cause a systemic fungal infection in mice. The mice were randomized into groups of 10 each. Since voriconazole was insoluble in vehicle (physiological saline), the mice of the voriconazole group in the test were injected a commercially available voriconazole (Pfizer, product lot number Z467001), that is, sulfobutyl ether-β-cyclodextrin used as a solubilizer, while other groups used physiological saline as a solvent. After establishing a systemic fungal infection model in mice for 2 hours, each administration group was administered with 5 mg/kg (calculated as voriconazole) drug in the tail vein, with the volume for administration of 0.1 ml/10 g. The mice in the model group were administered 0.1 ml/10 g of 0.9% sodium chloride solution, once daily, for 5 consecutive days. The death situation of the mice was inspected and the survival time was recorded. After a total of 7 days of observation, all dead mice were treated with fire using ethanol.

[7] = Pharmacokinetics after single intravenous administration in rats (plasma voriconazole); conditions: rat, in vivo, 2.5 mg/kg
Method: Dosage for administration: 2.5 mg/kg (calculated as voriconazole)
Dosing volume for administration: 2.5 ml/kg
Drug concentration: 1 mg/mL (calculated as voriconazole)
Route of administration: tail vein injection Experimental animals: SD rats, SPF grade, weighing 180-220 g, half male and half female; the SD rats were randomized into groups of 6 animals each, three males and three females in each group. Experimental method: Blood samples were collected at different time points after tail vein administration, and the plasma concentrations of voriconazole were measured.

[8] = test system: Candida albicans ATCC10231; assay: Systemic fungal infection in mice, administration by gavage, survival; assay type: in vivo; conditions: ICR mice, 5 mg/kg (calculated as voriconazole) once daily for 5 days
Method: as §2, §3
Before the experiment, a small amount of Candida albicans was picked from the SDA medium preserved at 4° C. by inoculation circle, inoculated into 1 ml of YPD culture medium, and cultured at 30° C. while being shaken at 200 rpm for 16 hours to make the fungus in the late stage of exponential growth. Blood cell counting plate was used to count, and the concentration of the broth was adjusted to 1*10^3−5*10^3 CFU/ml with RPMI1640 medium. The Candida albicans monoclone on the SDA plate was picked, inoculated into 1 ml YPD medium, cultured at 35° C., 200 rpm for 16 hours to the late exponential growth phase, 1% of which was then inoculated in fresh medium for 6 hours, centrifuged at 1000×g for 5 mins, washed three times with saline until the supernatant was colorless, while hemocytometer was used to count. The cell concentration was adjusted to 5*10^6/ml. The tail vein injection of 0.1 ml/10 g was carried out to cause a systemic fungal infection in mice. The mice were randomized into groups of 10 each. Voriconazole used was in the form of a suspension prepared with CMC-Na (Shanghai Panhong Chemical Technology Co., Ltd.), while other tested drugs were dissolved in saline and sonicated until clarified for administration. After establishing a systemic fungal infection model in mice for 2 hours, each group was administered by gavage with 5 mg/kg (calculated as voriconazole) drug, with the volume for administration of 0.1 ml/10 g. The mice in the model group were administered 0.1 ml/10 g of 0.9% sodium chloride solution, once daily, for 5 consecutive days. The death situation of the mice was inspected and the survival time was recorded. After a total of 7 days of observation, all dead mice were treated with fire using ethanol.

[9] = Pharmacokinetics after single gastrointestinal (gavage) administration in rats (plasma voriconazole); assay type: in vivo; conditions: SD rats, 2.5 mg/kg (calculated as voriconazole)
Method: Dosing volume for administration: 10 ml/kg
Solvent medium for administration: except for the positive voriconazole group using CMC-Na, the other groups using normal saline
Route of administration: gavage

[10] = In vitro metabolic stability in human plasma; assay type: in vitro ADME; conditions: human, plasma; 37°C, compound 10 μM; read-out: Human plasma T1/2
Method: The two reaction systems were set up three samples in parallel, while each sample was taken in an amount of 100 μL at 1 min, 2 mins, 5 mins, 15 mins, and 30 mins after the reaction, added to the centrifuge tube containing 400 μL of 0° C. pre-cooled internal standard working fluid and terminated the reaction. The sample was mixed by vortex for 1 min, centrifuged at 10,000×g for 10 mins in a 4° C. pre-cooled high-speed centrifuge. The supernatant was taken for HPLC detection.

SMILES	Content increase of total impurity (25° C., placed for 30 days) [5] [%]	Solubility ([1]; deionized water, 25±2°C) [mg/mL]	T1/2 [7]	survival rate of mice, day 1 [8] [%]	survival rate of mice, day 2 [8] [%]	survival rate of mice, day 3 [8] [%]	survival rate of mice, day 4 [8] [%]	survival rate of mice, day 5 [8] [%]	survival rate of mice, day 6 [8] [%]	other results
CC(OC(=O)N(C)c1ncccc1COC(=O)[C@@H](N)CCN)[n+]1cnn(C[C@](O)(c2ccc(F)cc2F)[C@@H](C)c2ncncc2F)c1.[Cl-] (stereo partly shown) [QR16005]	–	–	–	–	–	–	–	–	–	Solubility [1]: >50 mg/mL; Rat plasma T1/2 [2]: 8.25 ± 1.28 min; Rat intestinal S9 T1/2 [3]: 26.52 ± 3.69 min; Human intestinal S9 T1/2 [4]: 18.21 ± 2.04 min
CC(OC(=O)N(C)c1ccccc1COC(=O)[C@@H](N)CCCN)[n+]1cnn(C[C@](O)(c2ccc(F)cc2F)[C@@H](C)c2ncncc2F)c1.[Cl-] (stereo partly shown) [QR16007]	0.73	>50	173 ± 73.2 min	–	–	–	–	–	–	survival rate of mice, day 1 ([6]; day 1): 100%; survival rate of mice, day 2 ([6]; day 2): 100%; survival rate of mice, day 3 ([6]; day 3): 100%; survival rate of mice, day 4 ([6]; day 4): 100%; survival rate of mice, day 5 ([6]; day 5): 100%; survival rate of mice, day 6 ([6]; day 6): 90%; AUClast [7]: 10278 ± 3225 ng·h/mL
CC(OC(=O)N(C)c1ncccc1COC(=O)[C@@H](N)CCCNC(N)=O)[n+]1cnn(C[C@](O)(c2ccc(F)cc2F)[C@@H](C)c2ncncc2F)c1.[Cl-] (stereo partly shown) [QR16009]	0.71	>50	similar	100	80	80	70	70	70	survival rate of mice, day 7 ([8]; day 7): 70%; AUClast [9]: 7225 ± 1310 ng·h/mL; Cmax [9]: 925 ± 121 ng/mL; T1/2 [9]: 119 ± 52.2 min
CC(OC(=O)N(C)c1ncccc1CN)[n+]1cnn(C[C@](O)(c2ccc(F)cc2F)[C@@H](C)c2ncncc2F)c1 (stereo partly shown) [QR16022]	–	–	similar	–	–	–	–	–	–	solubility at 30 min ([1]; deionized water, 25±2°C): > 50 mg/mL; half-life at 10 µM ([2]; rat, plasma, read-out: Rat plasma T1/2): 29.5 ± 7.85 min; half-life at 10 µM [10]: 26 ± 2.39 min; half-life at 10 µM ([3]; rat, intestinal S9, pH 7.4, read-out: Rat intestinal S9 T1/2): 56 ± 10.3 min; half-life at 10 µM ([4]; human, intestinal S9, read-out: Human intestinal S9 T1/2): 43.2 ± 1.03 min
CNCc1cccnc1N(C)C(=O)OC(C)[n+]1cnn(C[C@](O)(c2ccc(F)cc2F)[C@@H](C)c2ncncc2F)c1 (stereo partly shown) [QR16023]	2.63	–	similar	100	90	70	70	60	60	solubility at 30 min ([1]; deionized water, 25±2°C): > 50 mg/mL; survival rate of mice, day 7 ([8]; day 7, 5 mg/kg): same with the positive drug voriconazole group
CC(OC(=O)OCCOCCOP(=O)(O)O)[n+]1cnn(C[C@](O)(c2ccc(F)cc2F)[C@@H](C)c2ncncc2F)c1 (stereo partly shown) [QR16030]	0.94	>50	–	100	90	80	70	60	50	AUClast [9]: 4324 ± 1362 ng·h/mL; T1/2 [9]: 152 ± 63 min
CN[C@@H](CSC(=O)OC(C)[n+]1cnn(C[C@](O)(c2ccc(F)cc2F)[C@@H](C)c2ncncc2F)c1)C(=O)O.Cl.[Cl-] (stereo partly shown) [QR16035]	1.21	–	–	–	–	–	–	–	–	Rat plasma T1/2 [2]: 11.85 ± 3.77 min; Rat intestinal S9 T1/2 [3]: 35.62 ± 8.12 min; Human intestinal S9 T1/2 [4]: 29.12 ± 2.09 min; AUClast [7]: 8256 ± 1256 ng·h/mL
